# Reference: article PMC5459446, “A phase I study of single-agent perifosine for recurrent or refractory pediatric CNS and solid tumors” (PLoS ONE, 2017)
# Values joined by “and” are separate entries in the source; they are usually repeats but may differ in a detail not shown here. Equal values may be shown once. Where a name gives a salt, the structure may show the parent alone.
# What was measured:
# [1] = test system: pediatric patients with recurrent or refractory CNS and solid tumors; assay: Phase I dose-escalation toxicity assessment (Common Toxicity Criteria v3.0, DLT, MTD); assay type: in vivo
# Experimental: This was a standard 3+3 phase I dose escalation study (NCT00776867) investigating 5 dose levels. Perifosine was only available as 50-mg tablets, complicating the phase I dose escalation scheme. A loading dose was administered on day 1 and subsequent maintenance doses were administered every 1 to 4 days, depending on dose level and BSA, with the goal of achieving dose levels of 25, 50, 75, 100, and 125 mg/m^2/day (Tables 1–5). This dosing scheme, incorporating drug administration as infrequently as every 4 days, was made possible by perifosine’s long half-life. Treatment was continued until disease progression, intolerable toxicity, DLT, or death was encountered. Subjects experiencing DLT but with evidence of clinical benefit at dose level 1, 2, or 3 were eligible to remain on study with a dose level reduction. […]
# Toxicity was assessed according to the Common Toxicity Criteria (version 3.0) of the National Cancer Institute, National Institutes of Health. DLT was defined as (1) any non-hematological toxicity grade ≥ 3 [except for grade 3 nausea, vomiting, and diarrhea that could be controlled within 24 hours with supportive care measures]; (2) grade 4 neutropenia on 2 consecutive blood counts drawn at least 72 hours apart; (3) grade 4 febrile neutropenia [ANC < 1000/μL and fever ≥ 38.5°C] or grade ≥ 3 documented infection with ANC < 1000/μL, or; (4) a platelet count < 25,000/μL. Grade ≥ 3 decrease in hemoglobin that could be corrected to at least 8 g/dl (grade 2) by transfusion of red blood cells, grade ≥ 3 leukopenia in the absence of dose-limiting neutropenia, and grade ≥ 3 lymphopenia were not considered DLTs.
# The DLT assessment period was the first 28-day cycle. If therapy was discontinued during the first cycle for reasons other than toxicity, an additional subject could be enrolled at that dose level to ensure adequate evaluation of toxicity. No intra-patient dose escalation was permitted.
# [2] = Steady state plasma pharmacokinetics (LC/electrospray MS); assay type: in vivo, human
# Experimental: Samples for pharmacokinetic analysis were obtained at baseline and during weeks 2 through 4 of cycle 1. At each time point, heparinized blood was collected into a plastic vacutainer to minimize adhesion of perifosine. Plasma was separated by centrifugation and stored in polypropylene cryovials at -70°C until assayed. Perifosine in plasma was measured by a validated reversed phase liquid chromatography/electrospray mass spectrometry method as developed and validated by Woo et al..
# mTOR pathway / autophagy = test system: mTOR pathway / autophagy; parameters: method as in PMID 19920197; conditions: doses as low as; cited from earlier work
# [3] = parameters: method as in PMID 25740692; conditions: oral, adult non-tumor bearing rhesus monkeys, cerebrospinal fluid; cited from earlier work
# [4] = 23 patients, all dose levels, at least possibly related
# [5] = 23 patients, all dose levels, at least possibly related, listed as Perifosine
compound,measurement,setting,value
"CCCCCCCCCCCCCCCCCCOP(=O)([O-])OC1CC[N+](C)(C)CC1 [perifosine, 1,1-Dimethyl-4-[[(octadecyloxy)hydroxyphosphinyl]oxy]-piperidinium inner salt]",MTD,"[1]; 5 dose levels, 25 to 125 mg/m2/day",not defined
same,"ALT, Any Grade, %",[1]; [4],39.13%
same,"ALT, Any Grade, No.",[1]; [4],9
same,"ALT, Grade 3 or 4, %",[1]; [4],0.00%
same,"ALT, Grade 3 or 4, No.",[1]; [4],0
same,"AST, Any Grade, %",[1]; [4],26.09%
same,"AST, Any Grade, No.",[1]; [4],6
same,"AST, Grade 3 or 4, %",[1]; [4],0.00%
same,"Decreased hemoglobin, Grade 3 or 4, %",[1]; [4],0.00%
same,"Decreased hemoglobin, Grade 3 or 4, No.",[1]; [4],0
same,"Decreased leukocytes, Any Grade, %",[1]; [4],47.83%
same,"Decreased leukocytes, Any Grade, No.",[1]; [4],11
same,"Decreased leukocytes, Grade 3 or 4, %",[1]; [4],0.00%
same,"Decreased leukocytes, Grade 3 or 4, No.",[1]; [4],0
same,"Decreased neutrophils (neutropenia), Grade 3 or 4, %",[1]; [4],8.7%
same,"Decreased neutrophils, Any Grade, %",[1]; [4],26.09%
same,"Decreased neutrophils, Any Grade, No.",[1]; [4],6
same,"Decreased neutrophils, Grade 3 or 4, No.",[1]; [4],2
same,"Decreased platelets, Any Grade, %",[1]; [4],21.74%
same,"Decreased platelets, Any Grade, No.",[1]; [4],5
same,"Decreased platelets, Grade 3 or 4, %",[1]; [4],0.00%
same,"Decreased platelets, Grade 3 or 4, No.",[1]; [4],0
same,"Diarrhea, Any Grade, %",[1]; [4],43.48%
same,"Diarrhea, Any Grade, No.",[1]; [4],10
same,"Diarrhea, Grade 3 or 4, %",[1]; [4],0.00%
same,"Diarrhea, Grade 3 or 4, No.",[1]; [4],0
same,"Fatigue, Any Grade, %",[1]; [4],65.22%
same,"Fatigue, Any Grade, No.",[1]; [4],15
same,"Fatigue, Grade 3 or 4, %",[1]; [4],4.35%
same,"Fatigue, Grade 3 or 4, No.",[1]; [4],1
same,"Fever, Any Grade, %",[1]; [4],21.74%
same,"Fever, Any Grade, No.",[1]; [4],5
same,"Fever, Grade 3 or 4, %",[1]; [4],4.35%
same,"Fever, Grade 3 or 4, No.",[1]; [4],1
same,"Flatulence, Any Grade, %",[1]; [4],13.04%
same,"Flatulence, Any Grade, No.",[1]; [4],3
same,"Flatulence, Grade 3 or 4, %",[1]; [4],0.00%
same,"Flatulence, Grade 3 or 4, No.",[1]; [4],0
same,"Hyperglycemia, Any Grade, %",[1]; [4],60.87%
same,"Hyperglycemia, Any Grade, No.",[1]; [4],14
same,"Hyperglycemia, Grade 3 or 4, %",[1]; [4],4.35%
same,"Hyperglycemia, Grade 3 or 4, No.",[1]; [4],1
same,"Hyperuricemia, Any Grade, %",[1]; [4],4.35%
same,"Hyperuricemia, Any Grade, No.",[1]; [4],1
same,"Hyperuricemia, Grade 3 or 4, %",[1]; [4],4.35%
same,"Hyperuricemia, Grade 3 or 4, No.",[1]; [4],1
same,"Hypocalcemia, Any Grade, %",[1]; [4],21.74%
same,"Hypocalcemia, Any Grade, No.",[1]; [4],5
same,"Hypocalcemia, Grade 3 or 4, %",[1]; [4],0.00%
same,"Hypocalcemia, Grade 3 or 4, No.",[1]; [4],0
same,"Hypokalemia, Any Grade, %",[1]; [4],21.74%
same,"Hypokalemia, Any Grade, No.",[1]; [4],5
same,"Hypokalemia, Grade 3 or 4, %",[1]; [4],0.00%
same,"Hypokalemia, Grade 3 or 4, No.",[1]; [4],0
same,"Hypomagnesemia, Any Grade, %",[1]; [4],13.04%
same,"Hypomagnesemia, Any Grade, No.",[1]; [4],3
same,"Hypomagnesemia, Grade 3 or 4, %",[1]; [4],0.00%
same,"Hypomagnesemia, Grade 3 or 4, No.",[1]; [4],0
same,"Hyponatremia, Any Grade, %",[1]; [4],21.74%
same,"Hyponatremia, Any Grade, No.",[1]; [4],5
same,"Hyponatremia, Grade 3 or 4, %",[1]; [4],0.00%
same,"Hyponatremia, Grade 3 or 4, No.",[1]; [4],0
same,"Hypophosphatemia, Any Grade, %",[1]; [4],13.04%
same,"Hypophosphatemia, Any Grade, No.",[1]; [4],3
same,"Hypophosphatemia, Grade 3 or 4, %",[1]; [4],0.00%
same,"Hypophosphatemia, Grade 3 or 4, No.",[1]; [4],0
same,"Infection URI, Any Grade, %",[1]; [4],17.39%
same,"Infection URI, Any Grade, No.",[1]; [4],4
same,"Infection URI, Grade 3 or 4, %",[1]; [4],0.00%
same,"Infection URI, Grade 3 or 4, No.",[1]; [4],0
same,"Infection—catheter related, Any Grade, %",[1]; [4],4.35%
same,"Infection—catheter related, Any Grade, No.",[1]; [4],1
same,"Infection—catheter related, Grade 3 or 4, %",[1]; [4],4.35%
same,"Infection—catheter related, Grade 3 or 4, No.",[1]; [4],1
same,"Lymphopenia, Any Grade, %",[1]; [4],17.39%
same,"Lymphopenia, Any Grade, No.",[1]; [4],4
same,"Lymphopenia, Grade 3 or 4, %",[1]; [4],0.00%
same,"Lymphopenia, Grade 3 or 4, No.",[1]; [4],0
same,"Nausea, Any Grade, %",[1]; [4],65.22%
same,"Nausea, Any Grade, No.",[1]; [4],15
same,"Nausea, Grade 3 or 4, %",[1]; [4],0.00%
same,"Nausea, Grade 3 or 4, No.",[1]; [4],0
same,"Pain—abdomen NOS, Any Grade, %",[1]; [4],21.74%
same,"Pain—abdomen NOS, Any Grade, No.",[1]; [4],5
same,"Pain—abdomen NOS, Grade 3 or 4, %",[1]; [4],0.00%
same,"Pain—abdomen NOS, Grade 3 or 4, No.",[1]; [4],0
same,"Pain—stomach, Any Grade, %",[1]; [4],13.04%
same,"Pain—stomach, Any Grade, No.",[1]; [4],3
same,"Pain—stomach, Grade 3 or 4, %",[1]; [4],0.00%
same,"Pain—stomach, Grade 3 or 4, No.",[1]; [4],0
same,"Vomiting, Any Grade, %",[1]; [4],56.52%
same,"Vomiting, Any Grade, No.",[1]; [4],13
same,"Vomiting, Grade 3 or 4, %",[1]; [4],0.00%
same,"Vomiting, Grade 3 or 4, No.",[1]; [4],0
same,"Decreased leukocytes, Any Grade, %",[1]; [5],47.8%
same,"Fatigue, Any Grade, %",[1]; [5],65.2%
same,"Hyperglycemia, Any Grade, %",[1]; [5],60.9%
same,"Nausea, Any Grade, %",[1]; [5],65.2%
same,"Vomiting, Any Grade, %",[1]; [5],56.5%
same,Number of DLTs,"[1]; grade 4 hyperuricemia at dose level 4, 23 patients, 5 dose levels",one
same,"AST, Grade 3 or 4, No.","[1]; human, in vivo",0
same,"Anorexia, Any Grade, %","[1]; human, in vivo",30.43%
same,"Anorexia, Any Grade, No.","[1]; human, in vivo",7
same,"Anorexia, Grade 3 or 4, %","[1]; human, in vivo",0.00%
same,"Anorexia, Grade 3 or 4, No.","[1]; human, in vivo",0
same,"Constipation, Any Grade, %","[1]; human, in vivo",13.04%
same,"Constipation, Any Grade, No.","[1]; human, in vivo",3
same,"Constipation, Grade 3 or 4, %","[1]; human, in vivo",0.00%
same,"Constipation, Grade 3 or 4, No.","[1]; human, in vivo",0
same,"Decreased hemoglobin, Any Grade, %","[1]; human, in vivo",43.48%
same,"Decreased hemoglobin, Any Grade, No.","[1]; human, in vivo",10
same,Average Plasma Level (standard deviation),"[2]; dose level 1, target 25 mg/m^2/day, patients 1,2,3, steady state",6.8 (1.6) μg/mL
same,Average Plasma Level (standard deviation),"[2]; dose level 2, target 50 mg/m^2/day, patients 4,5,6, steady state",14.4 (2.5) μg/mL and 39.0 (6.8) μM
same,Average Plasma Level (standard deviation),"[2]; dose level 3, target 75 mg/m^2/day, patients 7-11, steady state",11.5 (3.1) μg/mL and 31.1 (8.5) μM
same,Average Plasma Level (standard deviation),"[2]; dose level 4, target 100 mg/m^2/day, patients 12-17, steady state",12.7 (6.1) μg/mL and 34.4 (16.5) μM
same,Average Plasma Level (standard deviation),"[2]; dose level 5, target 125 mg/m^2/day, patients 18-22, steady state",12.1 (3.5) μg/mL and 32.8 (9.5) μM
same,Steady state plasma levels,[2]; observed in most patients,above 10 μM
same,Maintenance dose at which dose exposure plateau is reached,"[2]; pediatric patients, steady state plasma levels",50 mg/m^2/day
same,Lowest dose degrading mTOR pathway components and inducing autophagy,mTOR pathway / autophagy,5 µM
same,CNS penetration,[3],limited
